Laboratory results published in patent publication US20060211672A1, “Use of estrogen receptor-beta selective agonists for radiation-or chemotherapy-induced mucositis and radiation cystitis” (Wyeth, priority 2005, published 2006).

System: radiation-induced mucositis
Test: Acute radiation model of oral mucositis in hamsters
Type: in vivo, Syrian Golden Hamsters
Conditions: for % Days with mucositis score ≧3 / Days with mucositis score ≧3: once daily beginning on day -1, 40 Gy radiation day 0, scored day 6 to 28; for Days with mucositis score ≧3: Total Days 240
From the text: The acute radiation model in hamsters has proven to be an accurate, efficient and cost-effective technique to provide a preliminary evaluation of anti-mucositis compounds (Sonis et al., Oral Surg Oral Med Oral Pathol 1990; 69(4):437-448). The course of mucositis in this model is well defined and results in peak scores approximately 14-16 Days following radiation. The acute model has little systemic toxicity, resulting in few hamster deaths which makes the acute model amenable for initial efficacy studies. The acute model has also been used to study specific mechanistic elements in the pathogenesis of mucositis.
Forty (40) Male LVG Syrian Golden Hamsters (Charles River Laboratories), aged 5 to 6 weeks, with average body weight of 116.3 g at study commencement, were used. Animals were individually numbered using an ear punch and housed 10 animals per cage. Animals were fed with a Purina Labdiet® 5061 rodent diet and water was provided ad libitum. Animals were acclimatized for two days prior to study commencement.
Animals were randomly and prospectively divided into four (4) treatment groups prior to irradiation. Mucositis was induced using a standardized acute radiation protocol, where a single dose of radiation (40 Gy/dose) was administered to all animals on day 0. Radiation was generated with a 160 kilovolt potential (15-ma) source at a focal distance of 30 cm, hardened with an AI filtration system. Irradiation targeted the left buccal pouch mucosa at a rate of 3.2 Gy/minute. Prior to irradiation, animals were anesthetized with an intra-peritoneal injection of Ketamine (160 mg/kg) and Xylazine (8 mg/kg). The left buccal pouch was everted, fixed and isolated using a lead shield.
Controls or 3-(3-Fluoro-4-hydroxy-phenyl)-7-hydroxy-naphthalene-1-carbonitrile (Compound 1) were given in the volumes and by the routes described in Table 1 and dosing began the day before radiation treatment.
The grade of mucositis was scored, beginning day 6, and for every second day thereafter, through and including day 28. For the evaluation of mucositis, the animals were anesthetized with an inhalation anesthetic, and the left pouch everted. Mucositis was scored visually by comparison to a validated photographic scale, ranging from 0 for normal, to 5 for severe ulceration (clinical scoring). In descriptive terms, this scale is defined as follows: Score: Description: • 0 Pouch completely healthy. No erythema or vasodilation. • 1 Light to severe erythema and vasodilation. No erosion of mucosa. • 2 Severe erythema and vasodilation. Erosion of superficial aspects of mucosa leaving denuded areas. Decreased stippling of mucosa. • 3 Formation of off-white ulcers in one or more places. Ulcers may have a yellow/gray appearance due to pseudomembrane. Cumulative size of ulcers should equal about ¼ of the pouch. Severe erythema and vasodilation. • 4 Cumulative seize of ulcers should equal about ½ of the pouch. Loss of pliability. Severe erythema and vasodilation. • 5 Virtually all of pouch is ulcerated. Loss of pliability (pouch can only partially be extracted from mouth)
A score of 1-2 is considered to represent a mild stage of the disease, whereas a score of 3-5 is considered to indicate moderate to severe mucositis.
The effect on mucositis of each route of administration of Compound 1 compared to vehicle was assessed by determining the difference in the number of days hamsters in each group have ulcerative (score ≧3) mucositis. Statistical significance was assessed by a Chi-squared test and p<0.05 was considered statistically significant.

SMILES: N#Cc1cc(-c2ccc(O)c(F)c2)cc2ccc(O)cc12 [Compound 1, 3-(3-Fluoro-4-hydroxy-phenyl)-7-hydroxy-naphthalene-1-carbonitrile]
- % Days with mucositis score ≧3 (Gavage, 10 mg/kg): 44%
- Days with mucositis score ≧3 (Gavage, 10 mg/kg): 106 days
- % Days with mucositis score ≧3 (Topical (intrapouch), 500 nM): 30%
- Days with mucositis score ≧3 (Topical (intrapouch), 500 nM): 72 days
- change in the number of days hamsters had ulcerative (score ≧3) mucositis, in words (administered by gavage, vs vehicle): no significant change
- number of days animals experienced ulcerative mucositis, in words (administered topically (into the pouch), vs vehicle): significantly reduced
